Values joined by “and” are separate entries in the source; they are usually repeats but may differ in a detail not shown here. Equal entries are not always repeated.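 48-hour exposure; five concentrations; linearly interpolated endpoints. GI50 marks 50% less growth. At the TGI there is no net growth.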
What follows are compounds tested on K-562 leukemia (assay: NCI tumour cell line growth inhibition, 48 h).
`CNCCNc1c2c(c(NCCNC)c3c(CN(C)C)c[nH]c13)C(=O)c1ccccc1C2=O` was tested, and the GI50 was 1.81 µM and the TGI was greater than 100 µM.
With `O=C1NC(=Nc2ccccc2)S/C1=C\c1ccc2ncccc2c1` the GI50 was 0.846 µM and the TGI was greater than 25 µM.
Work on `C/C1=C\CC[C@@]2(C)O[C@@H]2[C@H]2OC(=O)[C@@H](CN(C)C)[C@@H]2CC1` yielded a GI50 of 2.54 µM and a TGI of 59.1 µM.
`Oc1ccc(Cl)cc1Cc1cc(Cl)cc(Cl)c1O` showed a GI50 of 4.52 µM and a TGI of 28.4 µM.
`C=C(C=O)C1CCC2(C(=O)O)CCC3(C)C(CCC4C5(C)CCC(O)C(C)(C)C5CCC43C)C12` (stereo unspecified) was tested, and the GI50 was 2.72 µM and the TGI was greater than 100 µM.
Work on `COc1ccc(N2C(=O)C(c3ccccc3)(c3ccccc3)C23C(=O)N(C)c2ccccc23)cc1` (stereo unspecified) yielded a GI50 greater than 100 µM and a TGI greater than 100 µM.
`COc1ccc(C2S/C(=C\c3ccccc3O)C(=O)N2NC(=O)Cc2ccccc2)cc1` (stereo unspecified) gave a TGI greater than 100 µM.
`Cc1ccc(S(=O)(=O)NCC2CCCCC2=O)cc1` (stereo unspecified) showed a TGI greater than 100 µM.
With `CNC(=S)NC1CCCCC1NC(=S)NC` (stereo unspecified) the TGI was greater than 100 µM.
Work on `CC1OC(n2cc(F)c(=O)[nH]c2=O)C=CC1O` (stereo unspecified) yielded a TGI greater than 100 µM.
`C=C(C=O)[C@@H]1C2OC(=O)C(=C)[C@@H]2CC(O)[C@@]1(C)CC` (stereo partly specified) showed a TGI of 22.6 µM.
`C=C(CCCCC)CN1CCCC1[C@@](C)(O)CC(=O)OCC` (stereo partly specified) gave a TGI greater than 100 µM.
`NC(=NCCCOc1ccc(Cl)cc1)Nc1ccc(C(F)(F)F)cc1` was tested, and the GI50 was 1.76 µM and the TGI was 5.6 µM.
In the case of `O=C1c2ccccc2C(=O)C1(Cl)C1(S(=O)(=O)O)c2ccccc2-c2ccccc21`, the TGI is reported as greater than 100 µM.

What follows are compounds tested on HOP-92 NSCLC (assay: NCI tumour cell line growth inhibition, 48 h).
Work on `O=S(=O)([O-])c1ccc2c(c1)-c1nc-2nc2[n-]c(nc3nc(nc4[n-]c(n1)c1ccc(S(=O)(=O)[O-])cc41)-c1cc(S(=O)(=O)[O-])ccc1-3)c1ccc(S(=O)(=O)[O-])cc21.[Cu+2].[Na+]` yielded a GI50 of 38.9 µM and a TGI greater than 100 µM.
`CC(C)c1ccc(Nc2ccc3c(OCCCN4CCN(C)CC4)cccc3n2)cc1` gave a GI50 of 10.6 µM and a TGI of 27.4 µM.
For `CCCCOC(=O)C1C(c2ccc(Cl)cc2)NC(c2ccc(Cl)cc2)C(C(=O)OCCCC)S1(=O)=O` (stereo unspecified), the TGI was greater than 100 µM.
Work on `Cc1cc(Br)cc(C)c1NC(=O)C(=O)C(C(=O)c1ccc2ccccc2c1)C1OC(=O)c2ccccc21` (stereo unspecified) yielded a TGI of 6.9 µM.
Compound `CC(=O)Nc1ccc(C(=O)NN2C(=O)C(Cl)C2c2ccccc2)cc1` (stereo unspecified) has a TGI greater than 100 µM.
With `COc1ccc2c(c1)C(C)Cc1c(Cl)ncnc1N2C` (stereo unspecified) the GI50 was 1.25 µM and the TGI was 7.5 µM.
`C#Cc1cccc(Nc2ncnc3cc(OC)c(OCCCCCCC(=O)NO)cc23)c1` was tested, and the GI50 was 0.0512 µM and the TGI was 0.415 µM.
`Cc1ccc(SC(C)/C=C/NNC2=NC(c3ccccc3)C(c3ccccc3)=NN2)cc1` (stereo unspecified) showed a TGI of 66.1 µM.
`Cc1nnc(S(=O)(=O)c2ccc(N=Nc3c(N)nc(N)nc3N)cc2)s1` showed a TGI greater than 100 µM.
With `O=c1n(CC2CO2)c(=O)n(CC2CO2)c(=O)n1CC1CO1` (stereo unspecified) the GI50 was 18 µM and 7.22 µM and the TGI was 63.7 µM and 111 µM and > 100 µM.
Work on `Cc1ccc(C(SCC(N)C(=O)O)(c2ccccc2)c2ccc(C)cc2)cc1` (stereo unspecified) yielded a GI50 of 1.19 µM and a TGI of 22.4 µM.
`COc1cc(Nc2cn[nH]c2-c2ccc(Cl)cc2)cc(OC)c1OC` was tested, and the GI50 was 2.73 µM and the TGI was 33.4 µM.
In the case of `CNCCNc1c2c(c(NCCNC)c3c(CN(C)C)c[nH]c13)C(=O)c1ccccc1C2=O`, the GI50 is reported as 1.02 µM and the TGI is reported as 5.33 µM.
For `O=C1NC(=Nc2ccccc2)S/C1=C\c1ccc2ncccc2c1`, the GI50 was greater than 25 µM and the TGI was greater than 25 µM.
Compound `C/C1=C\CC[C@@]2(C)O[C@@H]2[C@H]2OC(=O)[C@@H](CN(C)C)[C@@H]2CC1` has a GI50 of 9.87 µM and a TGI of 29.7 µM.
`Oc1ccc(Cl)cc1Cc1cc(Cl)cc(Cl)c1O` gave a GI50 of 1.19 µM and a TGI of 6.42 µM.
Work on `C=C(C=O)C1CCC2(C(=O)O)CCC3(C)C(CCC4C5(C)CCC(O)C(C)(C)C5CCC43C)C12` (stereo unspecified) yielded a GI50 of 19.7 µM and a TGI of 64.6 µM.
`COc1ccc(N2C(=O)C(c3ccccc3)(c3ccccc3)C23C(=O)N(C)c2ccccc23)cc1` (stereo unspecified) was tested, and the GI50 was greater than 100 µM and the TGI was greater than 100 µM.
In the case of `COc1ccc(C2S/C(=C\c3ccccc3O)C(=O)N2NC(=O)Cc2ccccc2)cc1` (stereo unspecified), the TGI is reported as greater than 100 µM.
`Cc1ccc(S(=O)(=O)NCC2CCCCC2=O)cc1` (stereo unspecified) showed a TGI of 97.2 µM.
Compound `CNC(=S)NC1CCCCC1NC(=S)NC` (stereo unspecified) has a TGI greater than 100 µM.
With `CC1OC(n2cc(F)c(=O)[nH]c2=O)C=CC1O` (stereo unspecified) the TGI was greater than 100 µM.
Compound `C=C(C=O)[C@@H]1C2OC(=O)C(=C)[C@@H]2CC(O)[C@@]1(C)CC` (stereo partly specified) has a TGI of 4.19 µM.
Compound `C=C(CCCCC)CN1CCCC1[C@@](C)(O)CC(=O)OCC` (stereo partly specified) has a TGI greater than 100 µM.
In the case of `NC(=NCCCOc1ccc(Cl)cc1)Nc1ccc(C(F)(F)F)cc1`, the GI50 is reported as 0.849 µM and the TGI is reported as 4.63 µM.
`O=C1c2ccccc2C(=O)C1(Cl)C1(S(=O)(=O)O)c2ccccc2-c2ccccc21` showed a TGI greater than 100 µM.

The compounds below were run on UACC-62 melanoma (assay: NCI tumour cell line growth inhibition, 48 h).
For `O=S(=O)([O-])c1ccc2c(c1)-c1nc-2nc2[n-]c(nc3nc(nc4[n-]c(n1)c1ccc(S(=O)(=O)[O-])cc41)-c1cc(S(=O)(=O)[O-])ccc1-3)c1ccc(S(=O)(=O)[O-])cc21.[Cu+2].[Na+]`, the GI50 was 21.7 µM and the TGI was greater than 100 µM.
`CC(C)c1ccc(Nc2ccc3c(OCCCN4CCN(C)CC4)cccc3n2)cc1` was tested, and the GI50 was 2.17 µM and the TGI was 4.86 µM.
Work on `CCCCOC(=O)C1C(c2ccc(Cl)cc2)NC(c2ccc(Cl)cc2)C(C(=O)OCCCC)S1(=O)=O` (stereo unspecified) yielded a TGI greater than 100 µM.
`Cc1cc(Br)cc(C)c1NC(=O)C(=O)C(C(=O)c1ccc2ccccc2c1)C1OC(=O)c2ccccc21` (stereo unspecified) showed a TGI of 29.6 µM.
In the case of `CC(=O)Nc1ccc(C(=O)NN2C(=O)C(Cl)C2c2ccccc2)cc1` (stereo unspecified), the TGI is reported as greater than 100 µM.
Work on `COc1ccc2c(c1)C(C)Cc1c(Cl)ncnc1N2C` (stereo unspecified) yielded a GI50 of 0.445 µM and a TGI of 19 µM.
With `C#Cc1cccc(Nc2ncnc3cc(OC)c(OCCCCCCC(=O)NO)cc23)c1` the GI50 was 0.0797 µM and the TGI was 0.344 µM.
Compound `Cc1ccc(SC(C)/C=C/NNC2=NC(c3ccccc3)C(c3ccccc3)=NN2)cc1` (stereo unspecified) has a TGI of 48.7 µM.
`Cc1nnc(S(=O)(=O)c2ccc(N=Nc3c(N)nc(N)nc3N)cc2)s1` gave a TGI greater than 100 µM.
`O=c1n(CC2CO2)c(=O)n(CC2CO2)c(=O)n1CC1CO1` (stereo unspecified) was tested, and the GI50 was 5.58 µM and the TGI was 41.9 µM and 75.5 µM.
`Cc1ccc(C(SCC(N)C(=O)O)(c2ccccc2)c2ccc(C)cc2)cc1` (stereo unspecified) showed a GI50 of 0.119 µM and a TGI of 17.3 µM.
Compound `COc1cc(Nc2cn[nH]c2-c2ccc(Cl)cc2)cc(OC)c1OC` has a GI50 of 3.61 µM and a TGI of 18.9 µM.
With `CNCCNc1c2c(c(NCCNC)c3c(CN(C)C)c[nH]c13)C(=O)c1ccccc1C2=O` the GI50 was 2.78 µM and the TGI was 19.7 µM.
In the case of `O=C1NC(=Nc2ccccc2)S/C1=C\c1ccc2ncccc2c1`, the GI50 is reported as 13.4 µM and the TGI is reported as greater than 25 µM.
Compound `C/C1=C\CC[C@@]2(C)O[C@@H]2[C@H]2OC(=O)[C@@H](CN(C)C)[C@@H]2CC1` has a GI50 of 17.7 µM and a TGI of 34.9 µM.
With `Oc1ccc(Cl)cc1Cc1cc(Cl)cc(Cl)c1O` the GI50 was 4.55 µM and the TGI was 18.8 µM.
For `C=C(C=O)C1CCC2(C(=O)O)CCC3(C)C(CCC4C5(C)CCC(O)C(C)(C)C5CCC43C)C12` (stereo unspecified), the GI50 was 1.64 µM and the TGI was 3.57 µM.
`COc1ccc(N2C(=O)C(c3ccccc3)(c3ccccc3)C23C(=O)N(C)c2ccccc23)cc1` (stereo unspecified) was tested, and the GI50 was greater than 100 µM and the TGI was greater than 100 µM.
`COc1ccc(C2S/C(=C\c3ccccc3O)C(=O)N2NC(=O)Cc2ccccc2)cc1` (stereo unspecified) was tested, and the TGI was greater than 100 µM.
In the case of `Cc1ccc(S(=O)(=O)NCC2CCCCC2=O)cc1` (stereo unspecified), the TGI is reported as greater than 100 µM.
With `CNC(=S)NC1CCCCC1NC(=S)NC` (stereo unspecified) the TGI was greater than 100 µM.
For `CC1OC(n2cc(F)c(=O)[nH]c2=O)C=CC1O` (stereo unspecified), the TGI was greater than 100 µM.
With `C=C(C=O)[C@@H]1C2OC(=O)C(=C)[C@@H]2CC(O)[C@@]1(C)CC` (stereo partly specified) the TGI was 13.9 µM.
`C=C(CCCCC)CN1CCCC1[C@@](C)(O)CC(=O)OCC` (stereo partly specified) showed a TGI greater than 100 µM.
`NC(=NCCCOc1ccc(Cl)cc1)Nc1ccc(C(F)(F)F)cc1` showed a GI50 of 1.81 µM and a TGI of 3.61 µM.
`O=C1c2ccccc2C(=O)C1(Cl)C1(S(=O)(=O)O)c2ccccc2-c2ccccc21` gave a TGI greater than 100 µM.

— PubChem BioAssay (NCI)
